Measured values reported in patent US20260226101A1, “PEPTIDE WITH ANTI-INFLAMMATORY AND ANTI-MICROBIAL ACTIVITY” (priority 2023, published 2026).
Several values for one entry are separate records, joined by “and”; a condition that tells them apart may be missing. Equal entries are not always repeated. Entries after “also recorded” stand apart in the source; their conditions may differ. Ends that are not written are not given here.

Tests used:
[1] = tested on: LPS-stimulated RAW 264.7 cells; assay: RT-qPCR of cytokine mRNA in LPS-stimulated RAW 264.7 cells; assay type: cell-based, murine; conditions: vs LPS control
Description: Total cellular RNA was isolated using the RNA isoplus reagent (Takara Bioscience, India) following the manufacturer's instructions. RNA was quantified spectrophotometrically by absorption measurements at 260 and 280 nm using the nano drop system.
As per table 8, RNA and the reaction mixture were mixed in PCR a tube and incubated in a thermal cycler for 5 min at 65° C. in and then cooled immediately on ice. Further, in the same tube, the step 2 reaction mixture was added and further incubated in the thermal cycler as mentioned below.
Primers were designed using the Primer3 online tool. GAPDH was used as a normalizing control. The sequence of primers used is provided in below table 10. Real-Time PCR was performed according to the manufacturer's protocol using Takara biosystem's real-time PCR mix (Takara, Bio-India) with ROX as a passive reference dye using applied Biosystem's step-one Real-Time PCR system. The following PCR program was used for all real-time PCR-based experiments: initial denaturation at 95° C. for 2 minutes, followed by 40 cycles of denaturation at 95° C. for 15 seconds, annealing at 60° C. for 30 seconds, extension at 60° C. for 15 seconds.
For quantification of gene expression, CT values of each gene were normalized to GAPDH and calibrated to the appropriate control sample using the SYBR Green-based comparative CT method (2-ΔΔCt). Fold change was calculated using the formula 2-ΔΔct.

[2] = tested on: E. coli ATCC 8739-induced septic peritonitis; assay: E. coli-induced septic peritonitis model; assay type: in vivo, BALB/c mice; conditions: administration at 1, 24 and 72 h post injection of E. coli; last time point of 8 h
[3] = tested on: CLP-induced polymicrobial sepsis; assay: Cecal ligation and puncture (CLP) polymicrobial sepsis model; assay type: in vivo, BALB/c mice
Description: Polymicrobial sepsis was induced using the CLP method described by [Wendy E. Walker, 2021; Benjamim et al. 2000], with minor modifications and the anesthetic used. Initially, the Mice were derived of food for 12 h before the CLP procedure and then anesthetized by intraperitoneal injection of ketamine (80-100 mg/kg BW) and xylazine in a dose (5-10 mg/kg) (for 20 g mice ketamine of 0.2 ml and xylazine of 0.1 ml). according to [Machado et al. 2012]. under sterile conditions a midline abdominal incision was made and then, a laparotomy of 10 mm/1 cm was performed, where the abdomen of mice was routinely disinfected and cut open in the middle to expose the abdominal cavity, and the cecum was mobilized, was then ligated below the cecal valve at the distal end of the cecum, ¾ was ligated with a sterile No. 4 thread, and punctured (CLP) with a 20-gauge needle in 2 places at the center of the distal end of the occlusal cecum and squeezed gently to extrude a small amount of intestinal contents through the perforation site to induce sepsis. The cecum was located but not ligated or punctured in the control animals. The cecum was placed back into the peritoneal cavity, and the abdominal incision was then closed in two layers with absorbable ethilon suture 5.0, and the animals were resuscitated with 0.1-0.2 mL of normal saline by subcutaneous injection. The sham group of mice had the identical operation as the treated and disease control groups, which included opening the peritoneum and exposing the bowel but without ligation or needle perforation of the cecum. Betadine/tramadol was used to relieve the pain of mice after operation. During the surgery, the […] was applied to the eyes to prevent dryness of the eyes. All the animals were returned to their cages, where they had free access to food and water. After 2 h of CLP, the treatment groups were administered with test peptides (0.6 & 1.2 mg/kg) and the standard drug through the subcutaneous & Intravenous route. To reduce variability between studies, the CLP method was always carried out by the same investigators. [Zingarelli B et al., Libert C et al., Hellman J et al., 2019].
Mice were subjected to CLP surgery and were discarded if they died during the procedure. In all the animal experiments, the test peptide IS 111 was administered by injections respectively; According to the clinical dosage regimen, IS 111 was repeatedly administered at 2 h after CLP surgery and recovery of animals from anesthesia. The mice were divided into the following treatment groups at random: BALB/c mice are used for Intravenous (IV) route of administration. In each group the half of the animals were killed after 4 and 18 hours, [Hubbard, W. J 2005; Rittirsch D 2009]. In another half of the animals, IS 111 at two doses 0.6 & 1.2 mg/kg were injected IV daily for 5 days following CLP. 0.9% Normal saline was administered in the sham group. The survival of mice was monitored for up to 18 h and the other half of the animals are continued for the survival monitored up to 7 days.
In the survival study, survival rates were determined by setting the day 0 from 0 to 18 h after surgery and continuing observation until day 7. In one set of animals/group, survival was monitored every 4 h up to 18 h and in another half subset of animals was followed for 5 days for survival assessment every 12 h after sepsis induction to verify mortality rates. The time of death was recorded as accurately as possible.
The physical activity of the mice was recorded independently by two independent observers who were blinded to treatment before sampling as previously described. In this study predetermined grading system was used with a scale of 1 (healthy) to 5 (agony). This scoring system is based on grading physical activity and food intake (table 16) using spontaneous activity of mice, reactivity to external stimuli, and spontaneous food intake to differentiate between grades 1 and 5. […]

[4] = tested on: LPS-stimulated peritoneal macrophages; assay: Cytokine ELISA in LPS-stimulated peritoneal macrophages; assay type: cell-based, BALB/c mice
Description: BALB/c mice (6-8 wk old) of either sex was injected IP with 1 ml of 4% sterile thioglycollate broth in PBS. After 4 d, mice were sacrificed, and peritoneal macrophages were harvested as described below [Meurer S K, 2016] and this model is well known as “Thioglycollate-induced peritonitis model”. […] After 4 days, mice were then euthanized, and the peritoneal macrophages were harvested by lavaging the peritoneal cavity with 5-6 mL of harvest medium (EDTA 5 mM+PBS). Isolated peritoneal exudate cells were washed twice with RPMI and centrifuged at 1000 rpm/400×g for 8-10 min at 4° C. […] The plates were then washed with warm PBS to remove non-adherent cells. […] After 24 h, culture supernatants were collected for estimation of cytokines by ELIZA and RTqPCR, whereas cells were harvested for western blotting. The procedure of ELISA, RTqPCR and other conditions are same as in the section. [Min Jee Kim et al., 2014].

FAKKFAK [IS 111, Phe-Ala-Lys-Lys-Phe-Ala-Lys]
CCL2 mRNA expression ([1]; dose dependent): reduction
IL-1β mRNA expression [1]: dose dependently reduced
IL-6 mRNA expression [1]: significant reduction
TNF-α mRNA expression [1]: significant reduction
Survival [2]: 80%
Activity index ([3]; 0.6 mg/Kg, 18 h after CLP, scale 1 (very active) to 5 (lethargic)): 2.8 ± 0.5 Grade points
Lung histology ([3]; 0.6 mg/kg, 18 h): Mild lung oedema, haemorrhage, and inflammatory cell infiltration
Serum IL-10 ([3]; 24-48 h after CLP, treatment 2 h after CLP): significant decrease
Bacterial growth in the peritoneum / bacterial counts ([3]; 18 h after CLP): inhibited; also recorded: ↓bacterial counts; ↓liver & kidney
Body temperature ([3]; 18 h after CLP surgery): in range of normal values
IL-10 levels in serum ([3]; 18 h after CLP, IV): increased slightly and 6 and IL-12, &↑IL-10 in serum;
Survival percentage ([3]; 7 days): 80%
Myeloperoxidase levels in the lung ([3]; IS 111-treated mice): significantly decreased
Reduction of mortality ([3]; vs diseased control animals (normal saline)): 80%
Mice still surviving ([3]; ~60 h post-CLP (last death in disease control group)): 80%
Concentration of maximum inhibition for all cytokines ([4]; IL-1β, IL-6, IL-12p70, TNF-α, text prints RAW 264.7 cells): 100 µM
IL-10 levels ([4]; summary table): TNF-α and ↑ IL-10 levels.
